Drawing on ChEMBL document CHEMBL5143564, “PES derivative PESA is a potent tool to globally profile cellular targets of PES” (Bioorg Med Chem Lett, 2022), this text covers Activity, t1/2 and T1/2 for two molecules.

Data set [1] has as its system DOHH-2. In words: Induction of apoptosis in human DOHH-2 cells assessed as increase in cleaved PARP expression at 12 uM measured after 4 to 24 hrs by Western blot analysis. It counts as functional, cell-based. The following applies: time 4-24 hrs. Background: A western blot detects proteins with antibodies after separation by electrophoresis.
Data set [2] deals with HepG2. In words: Cytotoxicity against human HepG2 cells measured after 72 hrs. It counts as functional, cell-based.
In data set [3] the test system is MDA-MB-453. In words: Cytotoxicity against human MDA-MB-453 cells measured after 72 hrs. It counts as functional, cell-based.
Data set [4] relates to DOHH-2. Put plainly: Induction of apoptosis in human DOHH-2 cells assessed as increase in cleaved caspase-3 expression at 12 uM measured after 4 to 24 hrs by Western blot analysis. It counts as functional, cell-based. Conditions: time 4-24 hrs.
Data set [5] deals with DOHH-2. Put plainly: Induction of apoptosis in human DOHH-2 cells assessed as increase in cleaved PARP expression at 0.5 to 12 uM measured after 24 hrs by Western blot analysis. Conditions: dose 0.5-12 µM. It counts as functional, cell-based.
Data set [6] is described as follows: GSH reactivity in pH 7.4 buffer assessed as GSH adduct formation by measuring half life at 50 uM by near-UV absorbance spectra analysis. The following applies: pH 7.4, 50 µM. It counts as physicochemical.
The species named for data set [7] is Homo sapiens. In words: Binding affinity to human HSP70 SBDalpha domain (537 to 610 residues) C574S mutant assessed as Cys603 adduct formation by size exclusion chromatography. On the technique in general: In gel filtration, larger molecules generally elute earlier.
The species named for data set [8] is Homo sapiens. In words: Binding affinity to ADP-bound full-length human HSP70 assessed as cysteine adduct formation at SBDalpha domain by measuring half life at 1 mM by fluorescence spectra analysis.
For data set [9], the species on record is Homo sapiens. In words: Binding affinity to ADP-bound full-length human HSP70 assessed as Cys603 adduct formation by size exclusion chromatography.
The test system of data set [10] is DOHH-2. In words: Cytotoxicity against human DOHH-2 cells measured after 72 hrs. It counts as functional, cell-based.
Data set [11] relates to DOHH-2. In words: Induction of autophagy in human DOHH-2 cells assessed as reduction in p62 expression at 12 uM measured after 4 to 24 hrs by Western blot analysis. It counts as functional, cell-based. The following applies: time 4-24 hrs.
In data set [12] the test system is DOHH-2. Put plainly: Induction of autophagy in human DOHH-2 cells assessed as change in transformation of LC3B1 to LC3B2 expression at 12 uM measured after 4 to 24 hrs by Western blot analysis. It counts as functional, cell-based. Conditions: time 4-24 hrs.
The subject of data set [13] is Jurkat. Put plainly: Cytotoxicity against human Jurkat T cells measured after 72 hrs. It counts as functional, cell-based.
The test system of data set [14] is DOHH-2. Put plainly: Up regulation of HSP70 expression in human DOHH-2 cells at 0.5 to 12 uM measured after 24 hrs by Western blot analysis. It counts as functional, cell-based. Conditions: dose 0.5-12 µM.
For data set [15], the system named is Jurkat. Put plainly: Cytotoxicity against human Jurkat T cells up to 20 uM measured after 24 hrs. It counts as functional, cell-based.
Data set [16] can be described thus: GSH reactivity in pH 7.4 buffer assessed as GSH adduct formation by measuring molecular weight at 1 mM by Q-TOF LC/MS analysis. It counts as physicochemical. Conditions: pH 7.4, 1000 µM.
The test system of data set [17] is DOHH-2. In words: Up regulation of HSP70 expression in human DOHH-2 cells at 12 uM measured after 4 to 24 hrs by Western blot analysis. It counts as functional, cell-based. Conditions: time 4-24 hrs.
In data set [18] the test system is DOHH-2. Put plainly: Up regulation of HSP90alpha expression in human DOHH-2 cells at 0.5 to 12 uM measured after 24 hrs by Western blot analysis. It counts as functional, cell-based. The following applies: dose 0.5-12 µM.
In data set [19] the test system is DOHH-2. Put plainly: Cytotoxicity against human DOHH-2 cells up to 20 uM measured after 24 hrs. It counts as functional, cell-based.
A short description of data set [20]: GSH reactivity in pH 7.4 buffer assessed as GSH adduct formation at 1 mM by HPLC analysis. It counts as physicochemical. The following applies: pH 7.4, 1000 µM.
Data set [21] relates to DOHH-2. Put plainly: Induction of autophagy in human DOHH-2 cells assessed as reduction in p62 expression at 0.5 to 12 uM measured after 24 hrs by Western blot analysis. It counts as functional, cell-based. Conditions: dose 0.5-12 µM.
Data set [22] concerns DOHH-2. Put plainly: Induction of apoptosis in human DOHH-2 cells assessed as increase in cleaved caspase-3 expression at 0.5 to 12 uM measured after 24 hrs by Western blot analysis. It counts as functional, cell-based. Conditions: dose 0.5-12 µM.
Data set [23] relates to HEK-293T. Put plainly: Cytotoxicity against HEK293T cells up to 20 uM measured after 24 hrs. It counts as toxicity, cell-based. The following applies: human.
The test system of data set [24] is DOHH-2. Put plainly: Induction of autophagy in human DOHH-2 cells assessed as change in transformation of LC3B1 to LC3B2 expression at 0.5 to 12 uM measured after 24 hrs by Western blot analysis. It counts as functional, cell-based. Conditions: dose 0.5-12 µM.
Data set [25] has as its system DOHH-2. In words: Up regulation of HSP90alpha expression in human DOHH-2 cells at 12 uM measured after 4 to 24 hrs by Western blot analysis. Conditions: time 4-24 hrs. It counts as functional, cell-based.
The test system of data set [26] is DOHH-2. In words: Induction of autophagy in human DOHH-2 cells assessed as reduction in p62 expression at 10 uM measured after 4 to 24 hrs by Western blot analysis. It counts as functional, cell-based. Conditions: time 4-24 hrs.
Data set [27] relates to DOHH-2. In words: Up regulation of HSP70 expression in human DOHH-2 cells at 10 uM measured after 4 to 24 hrs by Western blot analysis. It counts as functional, cell-based. Conditions: time 4-24 hrs.
Data set [28] has as its system DOHH-2. In words: Up regulation of HSP70 expression in human DOHH-2 cells at 0.5 to 10 uM measured after 24 hrs by Western blot analysis. Conditions: dose 0.5-10 µM. It counts as functional, cell-based.
Data set [29] deals with DOHH-2. Put plainly: Induction of autophagy in human DOHH-2 cells assessed as change in transformation of LC3B1 to LC3B2 expression at 10 uM measured after 4 to 24 hrs by Western blot analysis. Conditions: time 4-24 hrs. It counts as functional, cell-based.
In data set [30] the test system is DOHH-2. In words: Induction of autophagy in human DOHH-2 cells assessed as reduction in p62 expression at 0.5 to 10 uM measured after 24 hrs by Western blot analysis. It counts as functional, cell-based. The following applies: dose 0.5-10 µM.
The subject of data set [31] is DOHH-2. Put plainly: Up regulation of HSP90alpha expression in human DOHH-2 cells at 0.5 to 10 uM measured after 24 hrs by Western blot analysis. It counts as functional, cell-based. The following applies: dose 0.5-10 µM.
Data set [32] concerns DOHH-2. Put plainly: Induction of autophagy in human DOHH-2 cells assessed as change in transformation of LC3B1 to LC3B2 expression at 0.5 to 10 uM measured after 24 hrs by Western blot analysis. It counts as functional, cell-based. Conditions: dose 0.5-10 µM.
Data set [33] deals with DOHH-2. In words: Up regulation of HSP90alpha expression in human DOHH-2 cells at 10 uM measured after 4 to 24 hrs by Western blot analysis. It counts as functional, cell-based. The following applies: time 4-24 hrs.
Data set [34] concerns DOHH-2. In words: Induction of apoptosis in human DOHH-2 cells assessed as increase in cleaved caspase-3 expression at 0.5 to 10 uM measured after 24 hrs by Western blot analysis. It counts as functional, cell-based. The following applies: dose 0.5-10 µM.
Data set [35] deals with DOHH-2. In words: Induction of apoptosis in human DOHH-2 cells assessed as increase in cleaved PARP expression at 0.5 to 10 uM measured after 24 hrs by Western blot analysis. It counts as functional, cell-based. Conditions: dose 0.5-10 µM.
Data set [36] concerns DOHH-2. In words: Induction of apoptosis in human DOHH-2 cells assessed as increase in cleaved caspase-3 expression at 10 uM measured after 4 to 24 hrs by Western blot analysis. It counts as functional, cell-based. The following applies: time 4-24 hrs.
Data set [37] concerns DOHH-2. In words: Induction of apoptosis in human DOHH-2 cells assessed as increase in cleaved PARP expression at 10 uM measured after 4 to 24 hrs by Western blot analysis. It counts as functional, cell-based. The following applies: time 4-24 hrs.

Active and inactive are the calls of the source. The rule behind the calls is not given here.

In the case of `NS(=O)(=O)C#Cc1ccccc1`, the result in [1], in data set [2], in data set [3], in data set [4], in data set [5] and in data set [7] was Active. Also, the result in [9], in data set [10], in [11], in data set [12], in data set [13] and in data set [14] was Active. Besides, the outcome in data set [15], in [17], in [18], in [19], in [21] and in data set [22] was Active. The outcome in [24] and in [25] was Active. Moreover, the t1/2 in data set [6] came to 12.26 min. The T1/2 in data set [8] was determined as 272 min. In addition, the figures for the Activity in data set [16], in data set [20] and in data set [23] were 489 Da, “Active” and “Non-Toxic”, respectively.

Regarding `NS(=O)(=O)C#Cc1cccc(Cl)c1`, the outcome in data set [2], in data set [3], in data set [26], in [27], in data set [7] and in data set [28] was Active. The result in data set [29], in [30], in data set [31], in data set [9], in data set [10] and in [32] was Active. Besides, the result in [13], in data set [33], in data set [15], in data set [34], in data set [35] and in data set [36] was Active. In addition, the result in [19] and in data set [37] was Active. The t1/2 in data set [6] stood at 2.97 min. Besides, in data set [8], the T1/2 is 59.9 min. Besides, the Activity result in data set [23] is “Non-Toxic”.
